Results reported in ChEMBL document CHEMBL5108016, “Design, synthesis and neurite outgrowth activity of novel ganglioside GM1 derivatives by remodeling of the fatty acid moiety” (Eur J Med Chem, 2022).
Calls of active or inactive are those of the source. The rule behind the calls is not given here.

How the values were obtained:
[1] = Cytotoxicity against mouse Neuro2a cells assessed as inhibition of cell growth incubated for 24 hrs by MTT assay; assay type: toxicity, cell-based, N2a
N2a [2] = assay: Induction of neurite outgrowth in mouse Neuro2a cells assessed as increase in percentage of neurite-bearing cells at 25 uM incubated for 24 hrs; assay type: functional, cell-based
N2a [3] = assay: Induction of neurite outgrowth in mouse Neuro2a cells assessed as increase in neurite-number per cells at 25 uM incubated for 24 hrs; assay type: functional, cell-based
N2a [4] = assay: Induction of neurite outgrowth in mouse Neuro2a cells assessed as increase in neurite-length per cells at 25 uM incubated for 24 hrs; assay type: functional, cell-based
N2a [5] = assay: Induction of neurite outgrowth in mouse Neuro2a cells assessed as increase in GAP43 protein expression at 25 uM incubated for 24 hrs by immunoblotting analysis; assay type: functional, cell-based

| SMILES | IC50 at 24 h [1] [µM] | Activity (N2a [2]) | Activity (N2a [3]) | Activity (N2a [4]) | Activity (N2a [5]) |
| --- | --- | --- | --- | --- | --- |
| CCCCCC/C=C\CCCCCCCC(=O)N[C@@H](CO[C@@H]1O[C@H](CO)[C@@H](O[C@@H]2O[C@H](CO)[C@H](O[C@@H]3O[C@H](CO)[C@H](O)[C@H](O[C@@H]4O[C@H](CO)[C@H](O)[C@H](O)[C@H]4O)[C@H]3NC(C)=O)[C@H](O[C@]3(C(=O)O)C[C@H](O)[C@@H](NC(C)=O)[C@@H]([C@@H](O)[C@H](O)CO)O3)[C@H]2O)[C@H](O)[C@H]1O)[C@H](O)/C=C/CCCCCCCCCCCCCCC | > 200 | Active | Active | Active | – |
| CCCCCC/C=C\CCCC(=O)N[C@@H](CO[C@@H]1O[C@H](CO)[C@@H](O[C@@H]2O[C@H](CO)[C@H](O[C@@H]3O[C@H](CO)[C@H](O)[C@H](O[C@@H]4O[C@H](CO)[C@H](O)[C@H](O)[C@H]4O)[C@H]3NC(C)=O)[C@H](O[C@]3(C(=O)O)C[C@H](O)[C@@H](NC(C)=O)[C@@H]([C@@H](O)[C@H](O)CO)O3)[C@H]2O)[C@H](O)[C@H]1O)[C@H](O)/C=C/CCCCCCCCCCCCC | < 25 | – | – | – | – |
| CCCC/C=C\CCCCCCCC(=O)N[C@@H](CO[C@@H]1O[C@H](CO)[C@@H](O[C@@H]2O[C@H](CO)[C@H](O[C@@H]3O[C@H](CO)[C@H](O)[C@H](O[C@@H]4O[C@H](CO)[C@H](O)[C@H](O)[C@H]4O)[C@H]3NC(C)=O)[C@H](O[C@]3(C(=O)O)C[C@H](O)[C@@H](NC(C)=O)[C@@H]([C@@H](O)[C@H](O)CO)O3)[C@H]2O)[C@H](O)[C@H]1O)[C@H](O)/C=C/CCCCCCCCCCCCC | < 25 | – | – | – | – |
| CCCCCCCC/C=C\CCCCCCCC(=O)N[C@@H](CO[C@@H]1O[C@H](CO)[C@@H](O[C@@H]2O[C@H](CO)[C@H](O[C@@H]3O[C@H](CO)[C@H](O)[C@H](O[C@@H]4O[C@H](CO)[C@H](O)[C@H](O)[C@H]4O)[C@H]3NC(C)=O)[C@H](O[C@]3(C(=O)O)C[C@H](O)[C@@H](NC(C)=O)[C@@H]([C@@H](O)[C@H](O)CO)O3)[C@H]2O)[C@H](O)[C@H]1O)[C@H](O)/C=C/CCCCCCCCCCCCC | > 200 | Active | Active | Active | Active |
